One block for each compound: values may come before it. Starred links: 1 amine or outer side, 2 acyl side, 3 side chain; linkers in the order of their positions; H or OH if unused. Positions of bridges follow the written chain, without caps; N, C: chain ends. Non-standard residues stand in square brackets, D forms with d. Residues, ends and D or L forms follow the SMILES beside them. TATA = O=C(CC[*:1])N1CN(C(=O)CC[*:2])CN(C(=O)CC[*:3])C1; Phe(4-F) = N[C@@H](Cc1ccc(F)cc1)C(=O)O; β3hR = N=C(N)NCCC[C@H](N)CC(=O)O
Legend:
human β-FXIIa [1] = molecular target: T1, human β-FXIIa (Homo sapiens, UniProt P00748); test: Protease inhibition assay (Example 2); assay type: biochemical; conditions: for improvement of inhibitory activity / affinity: relative to parent peptide 2
T1 construct: human β-FXIIa, a naturally occurring proteolytic product of FXIIa comprising only the catalytic domain; purchased Molecular Innovations HFXIIAB
Method: The inhibitory activity of bicyclic peptides was determined by incubation with proteases and quantification of their residual activity with a fluorogenic substrate. Residual enzymatic activities were measured in buffer containing 10 mM Tris-CI, pH 7.4, 150 mM NaCl, 10 mM MgCl2, 1 mM CaCl2, 0.1% w/v BSA, 0.01% v/v Triton-X100, and 5% v/v DMSO in a volume of 150 μL. In a first series of experiments 50 μM of the fluorogenic substrate Z-Gly-Gly-Arg-AMC and 2.5 nM of enzyme (human p-FXIIa, HFXIIAB; Molecular Innovations) was used.
Dilutions of peptides were prepared ranging from 0.00001-4 μM. Fluorescence intensity was measured with an Infinite M200Pro fluorescence plate reader (excitation at 368 nm, emission at 467 nm; Tecan, Männedorf, Switzerland). The reactions were performed at 25° C., Sigmoidal curves were fitted to the data using the following dose response equation wherein x=peptide concentration, y=% activity of reaction without peptide, A1=100%, A2=0%, p=1. IC50 values were derived from the fitted curve.

in vitro = conditions: human, plasma
Method: Peptide (2 μl of 2 mM in H2O) was added to 398 μl human plasma (final peptide concentration was 10 μM in 400 μl final volume). The mixture was incubated in the water bath at 37° C. At 8 different time points (0 h, 30 min, 1 h, 2 h, 4 h, 8 h, 12 h, 24 h and in some cases 48 h) a sample of 30 μl was removed, diluted to 200 μl with the same buffer used for protease inhibition assay (see above) and heat-inactivated for 20 min at 65° C. During this step proteases present in plasma are being inactivated, that would otherwise interfere with the subsequently performed enzymatic assay. […] Before analysis, plasma samples were centrifuged for 5 min at 16′000 g and the supernatant was collected. A twofold dilution series ranging from 0.0005-0.5 μM was prepared. IC50 values were derived from the fitted curve using the equation indicated above. Residual inhibition in % was calculated using the following formula: IC50, 0h/IC50, xh*100 wherein IC50, 0h is the functional strength of the inhibitor at time point 0 and IC50, xh the functional strength of inhibitor after one of the different plasma incubation period mentioned above.
The activity of the plasma proteases was heat-inactivated by incubation of the samples at 65° C. for 10 minutes.

human β-FXIIa [2] = molecular target: T1, human β-FXIIa; test: Protease inhibition assay (Example 3); assay type: biochemical; conditions: for improvement of Ki / binding: relative to FXII618 (1)
Method: The inhibitory activity of the synthesized bicyclic peptides was determined by incubation with the protease and quantification of the residual activity at various peptide concentrations using a fluorogenic substrate. A 2 mM (by weight) stock solution in H2O was made for each peptide. For the assay, serial dilutions were made from the peptide stock solution using aqueous buffer containing 10 mM TRIS, 150 mM NaCl, 10 mM MgCl (hexahydrate), 1 mM CaCl2 (dihydrate), 0.01% (v/v) Triton X-100, 0.1% (w/v) BSA and pH adjusted to 7.4. The final concentration of human 3-FXIIa (HFXIIAB; Molecular Innovations) was 1 nM or 0.5 nM. […] The final concentration of the fluorogenic substrate Boc-Q-G-R-AMC (Bachem) was 50 μM and the final DMSO content was 5%. The fluorescence was measured using an Infinite M200 Pro plate reader (Tecan) with filters 368 nm for excitation and 467 nm for emission. The measurement was performed for 60 min with a read every minute at 25° C. IC50 and Ki values were calculated using GraphPad Prism 5 software.

FXIIa = conditions: cited from earlier work
[3] = tested on: intrinsic coagulation pathway; test: aPTT in human plasma (Example 2); assay type: biochemical
Method: Coagulation times (aPTT, PT) were determined in human plasma using a blood coagulation analyzer (STart. Hemostasis coagulation analyzer, Diagnostica Stago). Extrinsic coagulation was triggered with Innovin (recombinant human tissue factor, synthetic phospholipids and calcium in stabilized HEPES buffer system; Dade Behring; Siemens). Intrinsic coagulation was triggered with Pathromtin* SL (Siemens). Pooled normal human plasma used in this study was provided by Innovative research (USA).
The ability to selectively suppress the intrinsic coagulation pathway was assessed in in vitro coagulation assays. Activated partial thromboplastin time (aPTT) and prothrombin time (PT) measure the time to coagulation upon initiation of coagulation either via the intrinsic (aPTT) or the extrinsic pathway (PT). These tests have been performed in human plasma in the presence of different concentrations of FXIIa-inhibitors. Selective FXIIa inhibition is expected to increase aPTT but not PT. […] At a concentration of 5 μM peptide inhibitor no coagulation via the intrinsic pathway occurred within 120 s. Additionally, there was a correlation between inhibitory activity against FXIIa and extent of aPTT prolongation.

T1 sequence (P00748 373-615 limits assumed, other chains not shown): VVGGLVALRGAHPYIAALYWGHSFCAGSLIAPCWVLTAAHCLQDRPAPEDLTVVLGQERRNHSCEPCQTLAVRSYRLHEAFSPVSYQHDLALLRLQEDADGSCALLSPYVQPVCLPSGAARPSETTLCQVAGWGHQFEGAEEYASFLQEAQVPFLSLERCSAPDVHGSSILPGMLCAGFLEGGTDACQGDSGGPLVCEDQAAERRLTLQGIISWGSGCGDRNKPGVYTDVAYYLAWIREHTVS

SMILES: CC(C)C[C@@H]1NC(=O)[C@H](CCC(N)=O)NC(=O)[C@H](CCCNC(=N)N)NC(=O)[C@@H]2CSCCC(=O)N3CN(CN(C3)C(=O)CCSC[C@H](NC(=O)[C@@H](N)CCNC(=N)N)C(=O)N[C@@H](Cc3ccccc3)C(=O)N[C@@H](CCCNC(=N)N)C(=O)N[C@@H](CC(C)C)C(=O)N3CCC[C@H]3C(=O)N2)C(=O)CCSC[C@@H](C(=O)N[C@@H](CCCNC(=N)N)C(N)=O)NC(=O)[C@H](CCCNC(=N)N)NC1=O [peptide 71]
- half-life at 10 μM (in vitro): 21.7 ± 2.5 h
- Ki (human β-FXIIa [1]): 0.0185 to 0.0431 µM

SMILES: CC(C)C[C@@H]1NC(=O)[C@H](CCC(N)=O)NC(=O)[C@H](Cc2c[nH]cn2)NC(=O)[C@@H]2CSCCC(=O)N3CN(CN(C3)C(=O)CCSC[C@H](NC(=O)[C@@H](CO)NC(=O)[C@H](N)CCCNC(=N)N)C(=O)N[C@@H](Cc3ccc(F)cc3)C(=O)N[C@@H](CCCNC(=N)N)C(=O)N[C@@H](CC(C)C)C(=O)N3CCC[C@H]3C(=O)N2)C(=O)CCSC[C@@H](C(=O)N[C@@H](CCCNC(=N)N)C(N)=O)NC(=O)[C@H](CCCNC(=N)N)NC1=O [JS34] (H-[dR][dS]C[Phe(4-F)]RLPCHQLRCR-NH2; linker 3-8-13 via TATA; N-terminus and C-terminus assumed)
- half-life at 10 μM (in vitro): 38.7 h

SMILES: CC(C)C[C@@H]1NC(=O)[C@H](CCC(N)=O)NC(=O)[C@H](CCCNC(=N)N)NC(=O)[C@@H]2CSCCC(=O)N3CN(CN(C3)C(=O)CCSC[C@H](NC(=O)[C@@H](N)CCCNC(=N)N)C(=O)N[C@@H](Cc3ccccc3F)C(=O)N[C@@H](CCCNC(=N)N)C(=O)N[C@@H](CC(C)C)C(=O)N3CCC[C@H]3C(=O)N2)C(=O)CCSC[C@@H](C(=O)N[C@@H](CCCNC(=N)N)C(=O)N[C@@H](Cc2c[nH]c3ccccc23)C(N)=O)NC(=O)[C@H](CCCNC(=N)N)NC1=O [peptide 56]
- improvement of inhibitory activity / affinity (human β-FXIIa [1]): 2 fold

SMILES: CC(C)C[C@@H]1NC(=O)[C@H](CCC(N)=O)NC(=O)[C@H](CCCNC(=N)N)NC(=O)[C@@H]2CSCCC(=O)N3CN(CN(C3)C(=O)CCSC[C@H](NC(=O)[C@@H](N)CCCNC(=N)N)C(=O)N[C@@H](Cc3ccccc3)C(=O)N[C@@H](CCCNC(=N)N)C(=O)N[C@@H](CC(C)C)C(=O)N3CCC[C@H]3C(=O)N2)C(=O)CCSCC[C@@H](C(=O)N[C@@H](CCCNC(=N)N)C(N)=O)NC(=O)[C@H](CCCNC(=N)N)NC1=O [peptide 105]
- improvement of Ki / binding (human β-FXIIa [2]): 1.3 fold

SMILES: N=C(N)NCCCC(NC(=O)C(Cc1ccccc1)NC(=O)C1CCCN1)C(=O)CCl [PCK, D-Pro-Phe-Arg chloromethyl ketone, reference compound]
- IC50 (FXIIa): 0.18 µM

SMILES: CC(C)C[C@@H]1NC(=O)[C@H](CCC(N)=O)NC(=O)[C@H](CCCNC(=N)N)NC(=O)[C@@H]2CSCCC(=O)N3CN(CN(C3)C(=O)CCSC[C@H](NC(=O)[C@@H](N)CCCNC(=N)N)C(=O)N[C@@H](Cc3ccc(F)cc3)C(=O)N[C@@H](CCCNC(=N)N)C(=O)N[C@@H](CC(C)C)C(=O)N3CCC[C@H]3C(=O)N2)C(=O)CCSC[C@@H](C(=O)N[C@@H](CCCNC(=N)N)C(N)=O)NC(=O)[C@H](CCCNC(=N)N)NC1=O [peptide 61]
- aPTT prolongation compared with peptide 1 [3]: significantly increased aPTT prolongation

The next lines start with the values.

- improvement of inhibitory activity / affinity (human β-FXIIa [1]): around 3 fold
SMILES: CC(C)C[C@@H]1NC(=O)[C@H](CCC(N)=O)NC(=O)[C@H](CCCNC(=N)N)NC(=O)[C@@H]2CSCCC(=O)N3CN(CN(C3)C(=O)CCSC[C@H](NC(=O)[C@@H](N)CCCNC(=N)N)C(=O)N[C@@H](Cc3cccnc3)C(=O)N[C@@H](CCCNC(=N)N)C(=O)N[C@@H](CC(C)C)C(=O)N3CCC[C@H]3C(=O)N2)C(=O)CCSC[C@@H](C(=O)N[C@@H](CCCNC(=N)N)C(=O)N[C@@H](Cc2c[nH]c3ccccc23)C(N)=O)NC(=O)[C@H](CCCNC(=N)N)NC1=O [peptide 54]

- half-life at 10 μM (in vitro): 144 ± 30 h
SMILES: CC(C)C[C@@H]1NC(=O)[C@H](CCC(N)=O)NC(=O)[C@H](Cc2c[nH]cn2)NC(=O)[C@@H]2CSCCC(=O)N3CN(CN(C3)C(=O)CCSC[C@H](NC(=O)[C@@H](CO)NC(=O)[C@H](N)CCCNC(=N)N)C(=O)N[C@@H](Cc3ccc(F)cc3)C(=O)N[C@@H](CCCNC(=N)N)C(=O)N[C@@H](CC(C)C)C(=O)N3CCC[C@H]3C(=O)N2)C(=O)CCSC[C@@H](C(=O)N[C@@H](CCCNC(=N)N)C(N)=O)NC(=O)C[C@H](CCCNC(=N)N)NC1=O [JS33] (H-[dR][dS]C[Phe(4-F)]RLPCHQL[β3hR]CR-NH2; linker 3-8-13 via TATA; N-terminus and C-terminus assumed)

- Ki (human β-FXIIa [1]): 0.932 ± 0.08 µM
SMILES: CC(C)C[C@@H]1NC(=O)[C@H](CCC(N)=O)NC(=O)[C@H](CCCNC(=N)N)NC(=O)[C@@H]2CSCCC(=O)N3CN(CN(C3)C(=O)CCSC[C@H](N)C(=O)N[C@@H](Cc3ccccc3)C(=O)N[C@@H](CCCNC(=N)N)C(=O)N[C@@H](CC(C)C)C(=O)N3CCC[C@H]3C(=O)N2)C(=O)CCSC[C@@H](C(=O)N[C@@H](CCCNC(=N)N)C(N)=O)NC(=O)[C@H](CCCNC(=N)N)NC1=O [peptide 62] (H-CFRLPCRQLRCR-NH2; linker 1-6-11 via TATA)

- half-life at 10 μM (in vitro): 21.9 h
SMILES: CC(C)C[C@@H]1NC(=O)[C@H](CCC(N)=O)NC(=O)[C@H](CCCNC(=N)N)NC(=O)[C@@H]2CSCCC(=O)N3CN(CN(C3)C(=O)CCSC[C@H](NC(=O)[C@@H](CO)NC(=O)[C@H](N)CCCNC(=N)N)C(=O)N[C@@H](Cc3ccc(F)cc3)C(=O)N[C@@H](CCCNC(=N)N)C(=O)N[C@@H](CC(C)C)C(=O)N3CCC[C@H]3C(=O)N2)C(=O)CCSC[C@@H](C(=O)N[C@@H](CCCNC(=N)N)C(N)=O)NC(=O)C[C@H](CCCNC(=N)N)NC1=O [JS35] (H-[dR][dS]C[Phe(4-F)]RLPCRQL[β3hR]CR-NH2; linker 3-8-13 via TATA; N-terminus and C-terminus assumed)

- reduction of inhibitory activity / affinity (human β-FXIIa [1]; relative to parent peptide (peptide 2 or peptide 1)): 10 fold
SMILES: CC(C)C[C@@H]1NC(=O)[C@H](CCC(N)=O)NC(=O)[C@H](CCCNC(=N)N)NC(=O)[C@@H]2CSCCC(=O)N3CN(CN(C3)C(=O)CCSC[C@H](NC(=O)[C@@H](N)CCCNC(=N)N)C(=O)N[C@@H](Cc3ccccc3)C(=O)N[C@@H](CCCCN)C(=O)N[C@@H](CC(C)C)C(=O)N3CCC[C@H]3C(=O)N2)C(=O)CCSC[C@@H](C(=O)N[C@@H](CCCNC(=N)N)C(=O)N[C@@H](Cc2c[nH]c3ccccc23)C(N)=O)NC(=O)[C@H](CCCNC(=N)N)NC1=O [peptide 10] (H-RCFKLPCRQLRCRW-NH2; linker 2-7-12 via TATA)

- Ki (human β-FXIIa [2]): 0.018 ± 0.002 µM
SMILES: CC(C)C[C@@H]1NC(=O)[C@H](CCC(N)=O)NC(=O)[C@H](CCCNC(=N)N)NC(=O)[C@@H]2CSCCC(=O)N3CN(CN(C3)C(=O)CCSC[C@H](NC(=O)[C@@H](N)CCCNC(=N)N)C(=O)N[C@@H](Cc3ccccc3)C(=O)N[C@@H](CCCNC(=N)N)C(=O)N[C@@H](CC(C)C)C(=O)N3CCC[C@H]3C(=O)N2)C(=O)CCSCC[C@@H](C(=O)N[C@@H](CCCNC(=N)N)C(N)=O)NC(=O)C[C@H](CCCNC(=N)N)NC1=O [compound 107]

- Ki (human β-FXIIa [2]): 0.0054 ± 0.0001 µM
- improvement of Ki / binding (human β-FXIIa [2]): 4 fold
SMILES: CC(C)C[C@@H]1NC(=O)[C@H](CCC(N)=O)NC(=O)[C@H](CCCNC(=N)N)NC(=O)[C@@H]2CSCCC(=O)N3CN(CN(C3)C(=O)CCSC[C@H](NC(=O)[C@@H](N)CCCNC(=N)N)C(=O)N[C@@H](Cc3ccccc3)C(=O)N[C@@H](CCCNC(=N)N)C(=O)N[C@@H](CC(C)C)C(=O)N3CCC[C@H]3C(=O)N2)C(=O)CCSC[C@@H](C(=O)N[C@@H](CCCNC(=N)N)C(N)=O)NC(=O)C[C@H](CCCNC(=N)N)NC1=O [compound 100]

- improvement of inhibitory activity / affinity (human β-FXIIa [1]): 2.5 fold
SMILES: Cc1cccc(C[C@@H]2NC(=O)[C@@H](NC(=O)[C@@H](N)CCCNC(=N)N)CSCCC(=O)N3CN4CN(C3)C(=O)CCSC[C@H](NC(=O)[C@@H]3CCCN3C(=O)[C@H](CC(C)C)NC(=O)[C@H](CCCNC(=N)N)NC2=O)C(=O)N[C@@H](CCCNC(=N)N)C(=O)N[C@@H](CCC(N)=O)C(=O)N[C@@H](CC(C)C)C(=O)N[C@@H](CCCNC(=N)N)C(=O)N[C@H](C(=O)N[C@@H](CCCNC(=N)N)C(=O)N[C@@H](Cc2c[nH]c3ccccc23)C(N)=O)CSCCC4=O)c1 [peptide 52]

Reference: patent US20180118786A1, “NOVEL lNHIBITORS OF THE ENZYME ACTIVATED FACTOR XII (FXIIA)” (ECOLE POLYTECHNIQUE FEDERALE DE LAUSANNE (EPFL), priority 2015, published 2018)
